Results reported in patent US4939133A, “N-substituted-2-hydroxy-α-oxo-benzeneacetamides and pharmaceutical compositions having activity as modulators of the arachidonic acid cascade” (Warner-Lambert Company, priority 1985, dated 1990).

Target: T1, human leukocyte 5-lipoxygenase (Homo sapiens, UniProt P09917)
T1 construct: endogenous in cells; host or cells: leukocytes from fresh blood of normal adult men
T1 sequence (P09917 1-674): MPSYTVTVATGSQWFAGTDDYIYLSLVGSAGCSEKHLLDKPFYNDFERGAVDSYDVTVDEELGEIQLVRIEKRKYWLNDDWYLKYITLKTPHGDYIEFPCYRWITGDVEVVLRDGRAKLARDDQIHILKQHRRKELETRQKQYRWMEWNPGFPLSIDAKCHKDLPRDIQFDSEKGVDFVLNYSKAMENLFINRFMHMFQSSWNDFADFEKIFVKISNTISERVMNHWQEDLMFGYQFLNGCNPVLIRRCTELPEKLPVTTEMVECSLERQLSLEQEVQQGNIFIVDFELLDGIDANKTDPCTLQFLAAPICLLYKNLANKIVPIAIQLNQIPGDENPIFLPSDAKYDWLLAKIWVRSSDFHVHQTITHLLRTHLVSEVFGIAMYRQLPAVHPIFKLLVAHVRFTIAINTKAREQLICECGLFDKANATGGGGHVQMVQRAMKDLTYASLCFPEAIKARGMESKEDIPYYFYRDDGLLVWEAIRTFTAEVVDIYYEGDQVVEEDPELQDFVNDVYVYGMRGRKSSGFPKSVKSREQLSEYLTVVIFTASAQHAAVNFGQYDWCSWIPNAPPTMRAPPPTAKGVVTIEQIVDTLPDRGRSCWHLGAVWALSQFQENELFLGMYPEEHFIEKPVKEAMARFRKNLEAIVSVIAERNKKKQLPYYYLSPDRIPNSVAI
Assay: 5-Lipoxygenase inhibition in human leukocytes, 5-HETE formation (5LOA1, 5LOA in Table 6)
Assay type: cell-based
Settings: 50% inhibition of 5-HETE formation, E -number means X 10^-no., read-out: IC50 (5LOA)
Text: To Evaluate the Effect of Each Compounds as a 5-Lipoxygenase Inhibitor in Comparison to Standard Reference Agents in Human Leukocytes (5LOAl)
The purpose of this assay is to evaluate the activity of each compound as an inhibitor of human leukocyte 5-lipoxygenase.
Arachidonic acid and calcium ionophore A23187 are obtained from Sigma (St. Louis, MO). Silica gel plates, GF are obtained from Analtech (Newark, DE). Arachidonic acid, (1-^14 C) and 5-HETE (^3 H), 5-(S)-hydroxy-6-trans, 8,11,14-cis eicosatetraenoic acid, are obtained from New England Nuclear (Boston, MA). Six percent Dextran-70 in 0.9% NaCl is obtained from Cuffer Labs (Berkeley, CA).
Preparation of Leukocytes
Fresh blood from normal adult men who had not received any drugs for at least the previous five days is obtained by the Community Research Clinic (WL/PD) using venipuncture and collected into heparinized vacuotainer tubes. To every 100 ml of pooled blood is added 25 ml of dextran solution (6% dextran -70 in 0.9% sodium chloride containing 3% dextrose) and this is mixed gently in a plastic cylinder. The mixture is left to stand at room temperature for at least 90 minutes. The upper layer which is rich in leukocytes and platelets is then carefully decanted into 50 ml plastic tubes and centrifuged at about 100×g for eight minutes in and IEC centrifuge and rotor number 269 (about 600 rpm). The supernatant fluid is discarded and the pellet is resuspended in 10 ml of 0.87% ammonium chloride for exactly two minutes. This procedure is to lyse completely contaminating red blood cells. Leukocytes are then separated by centrifugation for ten minutes. The pellet is washed three times by suspension in 20 ml PBS (sodium chloride, 7.1 g; Na2 HPO4, 1.15 g; KH2 PO4,0.2 g, and KCl, 0.2 g/L) and centrifuged as before. The final pellet is suspended in PBS containing 0.87 mM CaCl2. Viability of the cells is then checked using trypan blue exclusion method and is found to be over 90%.
5-Lipoxygenase Enzyme Assay
Leukocyte cells in suspension (0.98 ml) are incubated with or without test compounds for five minutes at 37° C. in a shaking water bath. At this time a […] mixture is perpared per 1 ml of cell suspension: 100 mM arachidonic acid, 1 μl, 0.05 μCi ^14 C-arachidonic acid in 5 μl; 1 mM calcium ionophore A23187, 10 μl (1). This mixture is added and the incubation continued for five minutes. The reaction is stopped by adding four volumes of absolute ethanol and the mixture is kept in ice for 30 minutes. The floculated precipitate is separated by centrifugation at about 37,000×g for 20 minutes (Beckman Instruments rotor number 40). The alcohol extract is taken to dryness under a stream of nitrogen and the residue is dissolved in 100-200 μl absolute ethanol. At the time any turbidity is removed by centrifugation. An aliquot (25-50 μl) is applied onto 20×20 cm silica gel TLC plate and developed using the following solvent system: diethyl ether, petroleum ether (2040°C.),acetic acid (50:50: 1 v/v). Zones of 1 cm apart are scraped from the TLC plate and transferred to mini-vials. Methanol (0.5 ml) is added to dissolve the radioactivity adsorbed to the silica gel and scintillation fluid (H. P., Beckman), 5 ml is then added and vials are counted in a liquid scintillation counter. A sample of ^3 H-5-HETE is applied and used for the identification of the formed 5-HETE. Total radioactivity in the test as well as the control samples are normalized and the amount of 5-HETE present is calculated accordingly.
IC50 values are defined as the concentrations of test agents which caused a 50% inhibition of the formation of 5-HETE as compared to control and are determined by inspection of the concentration-response curves.

IC50: 500 nM
Compound: COc1ccc(CCc2ccc(NC(=O)c3ccc(C)cc3O)cc2)cc1OC [Example 46, N-[4-[2-(3,4-Dimethoxyphenyl)ethyl]phenyl]-2-hydroxy-4-methylbenzamide]
